Source: US9050345B2, “Pyrrolotriazines as potassium ion channel inhibitors” (BRISTOL-MYERS SQUIBB COMPANY, priority 2013, dated 2015)

Target: T1, human KV 1.5 (IKur) (Homo sapiens, UniProt P22460)
T1 construct: expressed in transfected cells
Assay: block of IKur current in patch clamped L-929 cells expressing human Kv1.5
Format: cell-based
Conditions: patch clamped mammalian L-929 cells stably expressing human Kv1.5; for inhibition at 0.3 µM: L929, 0.3 μM, read-out: KV1_5% Inh L929 @0.3 μM

T1 sequence (P22460 whole entry): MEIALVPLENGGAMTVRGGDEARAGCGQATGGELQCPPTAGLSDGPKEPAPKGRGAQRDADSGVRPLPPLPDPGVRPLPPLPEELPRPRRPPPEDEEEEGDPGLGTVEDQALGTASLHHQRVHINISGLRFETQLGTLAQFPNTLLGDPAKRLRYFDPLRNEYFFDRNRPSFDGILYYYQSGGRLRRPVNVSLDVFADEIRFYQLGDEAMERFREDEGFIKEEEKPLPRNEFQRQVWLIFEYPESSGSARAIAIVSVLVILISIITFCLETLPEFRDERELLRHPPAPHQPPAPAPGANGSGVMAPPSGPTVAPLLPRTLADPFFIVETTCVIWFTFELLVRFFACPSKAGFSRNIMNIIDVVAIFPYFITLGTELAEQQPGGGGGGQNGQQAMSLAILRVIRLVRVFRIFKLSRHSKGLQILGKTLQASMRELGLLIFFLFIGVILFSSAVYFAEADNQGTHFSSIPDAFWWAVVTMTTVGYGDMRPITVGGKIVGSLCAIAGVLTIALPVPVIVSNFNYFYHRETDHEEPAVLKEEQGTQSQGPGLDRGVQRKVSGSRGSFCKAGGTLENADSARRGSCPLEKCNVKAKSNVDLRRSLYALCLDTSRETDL

| Molecule | inhibition at 0.3 µM | KV1_5% Inh L929 @0.3 μM |
| --- | --- | --- |
| NS(=O)(=O)c1cncc(-c2nc(NCc3cccnn3)c3c(-c4ccccc4)ccn3n2)c1 [Example 108, 5-(5-phenyl-4-(pyridazin-3-ylmethylamino)pyrrolo [1,2-f][1,2,4]triazin-2-yl)pyridine-3-sulfonamide] | 72% | – |
| NS(=O)(=O)c1cncc(-c2nc(NCc3ccncn3)c3c(-c4ccccc4)ccn3n2)c1 [Example 165, 5-(5-phenyl-4-((pyrimidin-4-ylmethyl)amino)pyrrolo [2,1-f][1,2,4]triazin-2-yl)pyridine-3-sulfonamide] | 90.3% | – |
| OCC(O)c1cncc(-c2nc(NCc3ccccc3)c3c(-c4ccccc4)ccn3n2)c1 (stereo not shown) [Example 14, 1-(5-(4-(Benzylamino)-5-phenylpyrrolo[1,2-f][1,2,4]triazin-2-yl)pyridin-3-yl)ethane-1,2-diol] | 95% | 90.60% |
| NS(=O)(=O)c1ccc(CCNC(=O)c2nc(NCc3ccccc3)c3c(-c4ccccc4)ccn3n2)cc1 [Example 117, 4-(benzylamino)-5-phenyl-N-(4-sulfamoylphenethyl) pyrrolo[1,2-f][1,2,4] triazine-2-carboxamide] | 86.6% | – |
| COC(=O)C(CS(N)(=O)=O)NC(=O)c1cncc(-c2nc(NCc3ccccc3)c3c(-c4ccccc4)ccn3n2)c1 (stereo not shown) [Example 45, Methyl 2-(5-(4-(benzylamino)-5-phenylpyrrolo[2,1-f][1,2,4]triazin-2-yl)nicotinamido)-3-sulfamoylpropanoate] | 90.1% | – |
| O=C(NCC(O)CO)c1cncc(-c2nc(NCc3ccccc3)c3c(-c4ccccc4)ccn3n2)c1 (stereo not shown) [Example 96, 5-(4-(benzylamino)-5-phenylpyrrolo [1,2-f][1,2,4]triazin-2-yl)-N-(2,3-dihydroxypropyl) nicotinamide] | 95.7% | – |
| N#Cc1ccc(-c2nc(NCc3ccccc3)c3c(-c4ccccc4)ccn3n2)cn1 [Example 80, 5-(4-(-benzylamino)-5-phenylpyrrolo [1,2-f][1,2,4]triazin-2-yl) picolinonitrile] | 96.9% | – |
| Nc1cncc(-c2nc(NCc3cnccn3)c3c(-c4ccccc4)ccn3n2)c1 [Example 161, 2-(5-aminopyridin-3-yl)-5-phenyl-N-(pyrazin-2-ylmethyl)pyrrolo[1,2-f] [1,2,4]triazin-4-amine] | 97.9% | – |
| N#Cc1cccc(-c2ccn3nc(-c4cncc(N)c4)nc(NCc4ccccn4)c23)c1 [Example 69, 3-(2-(5-aminopyridin-3-yl)-4-(pyridin-2-ylmethylamino)pyrrolo [1,2-f][1,2,4]triazin-5-yl)benzonitrile] | 80.3% | – |
| O=C(O)c1cncc(-c2nc(NCc3ccccc3)c3c(-c4ccccc4)ccn3n2)c1 [Example 12, 5-(4-(Benzylamino)-5-phenylpyrrolo[1,2-f][1,2,4]triazin-2-yl)nicotinic acid] | 88.2% | – |
| NS(=O)(=O)c1cccc(-c2nc(NCc3ccccn3)c3c(-c4ccccc4)ccn3n2)c1 [Example 150, 3-(5-phenyl-4-(pyridin-2-ylmethylamino)pyrrolo [1,2-f][1,2,4]triazin-2-yl)benzenesulfonamide] | 97.5% | – |
| NS(=O)(=O)c1cncc(-c2nc(NCc3ccccc3)c3c(-c4ccccc4)ccn3n2)n1 [Example 15, 6-(4-(Benzylamino)-5-phenylpyrrolo[1,2-f][1,2,4]triazin-2-yl)pyrazine-2-sulfonamide] | 95.5% | – |
| N#Cc1ccccc1CNc1nc(-c2cncc(S(N)(=O)=O)c2)nn2ccc(-c3ccccc3)c12 [Example 168, 5-(4-((2-cyanobenzyl)amino)-5-phenylpyrrolo [2,1-f][1,2,4]triazin-2-yl)pyridine-3-sulfonamide] | 86.8% | – |
| NS(=O)(=O)c1cncc(-c2nc(NCc3ccccn3)c3c(-c4ccccc4)ccn3n2)c1 [Example 2, 5-(5-Phenyl-4-(pyridin-2-ylmethylamino)pyrrolo[1,2-f][1,2,4]triazin-2-yl)pyridine-3-sulfonamide] | 98.5% | – |
| COc1cccc(CNc2nc(-c3cnc(OC)c(S(N)(=O)=O)c3)nn3ccc(-c4ccccc4)c23)n1 [Example 139, 2-methoxy-5-(4-(((6-methoxypyridin-2-yl)methyl)amino)-5-phenylpyrrolo [2,1-f][1,2,4]triazin-2-yl)pyridine-3-sulfonamide] | 98.5% | – |
| NS(=O)(=O)c1cncc(-c2nc(N3Cc4cccnc4C3)c3c(-c4ccccc4)ccn3n2)c1 [Example 144, 5-(4-(5,7-dihydro-6H-pyrrolo[3,4-b]pyridin-6-yl)-5-phenylpyrrolo [2,1-f][1,2,4]triazin-2-yl)pyridine-3-sulfonamide] | 99% | – |
| CC(Nc1nc(-c2cncc(S(N)(=O)=O)c2)nn2ccc(-c3ccccc3)c12)c1ccccc1 (stereo not shown) [Example 8, 5-(5-Phenyl-4-(1-phenylethylamino)pyrrolo[1,2-f][1,2,4]triazin-2-yl)pyridine-3-sulfonamide] | 97.5% | 95.79% |
| CC(=O)NS(=O)(=O)c1cncc(-c2nc(NCc3ccccc3)c3c(-c4ccccc4)ccn3n2)c1 [Example 91, N-(5-(4-(benzylamino)-5-phenylpyrrolo [1,2-f][1,2,4]triazin-2-yl)pyridin-3-ylsulfonyl)acetamide] | 61.7% | – |
| O=S(=O)(Nc1cncc(-c2nc(NCc3ccccn3)c3c(-c4ccccc4)ccn3n2)c1)C1CC1 [Example 56, N-(5-(5-phenyl-4-(pyridin-2-ylmethylamino)pyrrolo[1,2-f][1,2,4]triazin-2-yl)pyridin-3-yl) cyclopropanesulfonamide] | 93.8% | – |
| O=C(O)CC(=O)Nc1cncc(-c2nc(NCc3ccccc3)c3c(-c4ccccc4)ccn3n2)c1 [Example 78, 3-(5-(4-(benzylamino)-5-phenylpyrrolo [1,2-f][1,2,4]triazin-2-yl)pyridin-3-ylamino)-3-oxopropanoic acid] | 22.9% | – |
| COC(=O)c1cccc(-c2nc(NCc3ccccn3)c3c(-c4ccccc4)ccn3n2)c1 [Example 86, methyl 3-(5-phenyl-4-(pyridin-2-ylmethylamino)pyrrolo[1,2-f][1,2,4]triazin-2-yl)benzoate] | 86.3% | – |
| COc1ncc(-c2nc(NCc3cnccn3)c3c(-c4ccccc4)ccn3n2)cc1S(N)(=O)=O [Example 137, 2-methoxy-5-(5-phenyl-4-((pyrazin-2-ylmethyl)amino)pyrrolo [2,1-f][1,2,4]triazin-2-yl)pyridine-3-sulfonamide] | 82.9% | – |

The next lines start with the values.

| inhibition at 0.3 µM | KV1_5% Inh L929 @0.3 μM | Molecule |
| --- | --- | --- |
| 96.9% | – | C1=C(c2nc(NCc3ccccc3)c3c(-c4ccccc4)ccn3n2)CCOC1 [Example 100, N-benzyl-2-(3,6-dihydro-2H-pyran-4-yl)-5-phenylpyrrolo [1,2-f][1,2,4] triazin-4-amine] |
| 97.8% | – | O=S(=O)(CCCCl)Nc1cncc(-c2nc(NCc3ccccn3)c3c(-c4ccccc4)ccn3n2)c1 [Example 63, 3-chloro-N-(5-(5-phenyl-4-(pyridin-2-ylmethylamino)pyrrolo[1,2-f][1,2,4]triazin-2-yl)pyridin-3-yl)propane-1-sulfonamide] |
| 84.3% | – | NS(=O)(=O)c1cncc(-c2nc(NCc3nc4ccccc4s3)c3c(-c4ccccc4)ccn3n2)c1 [Example 172, 5-(4-((benzo[d]thiazol-2-ylmethyl)amino)-5-phenylpyrrolo [2,1-f][1,2,4]triazin-2-yl)pyridine-3-sulfonamide] |
| 16% | – | NS(=O)(=O)c1cncc(-c2nc(NCc3ccccn3)c3c(-c4ccc(N5CCOCC5)cc4)ccn3n2)c1 [Example 106, 5-(5-(4-morpholinophenyl)-4-(pyridin-2-ylmethylamino)pyrrolo[1,2-f][1,2,4]triazin-2-yl)pyridine-3-sulfonamide] |
| 97.5% | – | NC(=O)CNS(=O)(=O)c1cncc(-c2nc(NCc3ccccn3)c3c(-c4ccccc4)ccn3n2)c1 [Example 28, 2-(5-(5-Phenyl-4-(pyridin-2-ylmethylamino)pyrrolo[1,2-f][1,2,4]triazin-2-yl)pyridine-3-sulfonamido)acetamide] |
| 20.6% | – | NC(=O)CS(=O)(=O)Nc1cncc(-c2nc(NCc3ccccn3)c3c(-c4ccccc4)ccn3n2)c1 [Example 55, 2-(N-(5-(5-phenyl-4-(pyridin-2-ylmethylamino)pyrrolo[1,2-f][1,2,4]triazin-2-yl)pyridin-3-yl)sulfamoyl)acetamide] |
| – | 38.74% | 1-(1-(4- (benzylamino)-5- phenylpyrrolo [1,2-f][1,2,4] triazine-2-carbonyl) piperidin-4-yl)-1H- benzo[d]imidazol- 2(3H)-one [Example 121] |
| 97.2% | – | NS(=O)(=O)c1cncc(-c2nc(NCc3cocn3)c3c(-c4ccccc4)ccn3n2)c1 [Example 142, 5-(4-((oxazol-4-ylmethyl)amino)-5-phenylpyrrolo [2,1-f][1,2,4]triazin-2-yl)pyridine-3-sulfonamide] |
| 98.5% | – | NS(=O)(=O)c1nc(-c2nc(NCc3ccccn3)c3c(-c4ccccc4)ccn3n2)cs1 [Example 5, 4-(5-Phenyl-4-(pyridin-2-ylmethylamino)pyrrolo[1,2-f][1,2,4]triazin-2-yl)thiazole-2-sulfonamide] |
| 97.8% | – | NS(=O)(=O)Nc1cccc(-c2nc(NCc3ccccn3)c3c(-c4ccccc4)ccn3n2)c1 [Example 50] |
| 98.5% | – | NS(=O)(=O)c1cncc(-c2nc(NCc3ccccn3)c3c(-c4ccccc4C(F)(F)F)ccn3n2)c1 [Example 135, 5-(4-((pyridin-2-ylmethyl)amino)-5-(2-(trifluoromethyl)phenyl)pyrrolo[2,1-f][1,2,4]triazin-2-yl)pyridine-3-sulfonamide] |
| 98.5% | – | NS(=O)(=O)c1cncc(-c2nc(NCc3cnccn3)c3c(-c4ccccc4F)ccn3n2)c1 [Example 156, 5-(5-(2-fluorophenyl)-4-((pyrazin-2-ylmethyl)amino)pyrrolo [2,1-f][1,2,4]triazin-2-yl)pyridine-3-sulfonamide] |
| 15.6% | – | N#Cc1ccc(-c2ccn3nc(-c4cncc(S(N)(=O)=O)c4)nc(NCc4ccccn4)c23)cc1 [Example 107, 5-(5-(-4-cyanophenyl)-4-(pyridin-2-ylmethylamino)pyrrolo[1,2-f][1,2,4]triazin-2-yl)pyridine-3-sulfonamide] |
